Source: publication PMC10923054, “Antiplasmodial peptaibols act through membrane directed mechanisms” (Cell Chemical Biology, 2024)
Square brackets hold non-standard residues; d marks the D form. Peptide text beside a SMILES is read from it. Leu(ol) = CC(C)C[C@H](N)CO; dIva = CC[C@@](C)(N)C(=O)O; Aib = CC(C)(N)C(=O)O

Experiments:
[1] = tested on: Attb; format: cell-based, P. falciparum; conditions: Asexual Blood Stage DHODH; mean ± SEM of 3 biological replicates
Procedure: (§1) Parasites grown in the Winzeler laboratory for screening and drug selections were maintained in RPMI 1640 medium supplemented with 0.25% Albumax I, 26 mM sodium bicarbonate, 0.1 mM hypoxanthine, and […] gentamicin. Human O+ whole blood obtained from the Blood Bank of The Scripps Research Institute was used for cultivation (human subjects IRB number: 125933). Blood-stage cultures were kept at 37°C with 5% CO2, 3% O2, and 92% N2. Monitoring of parasitemia and parasite morphology was performed using microscopic evaluation of thin blood smears that were first fixed with methanol, and then stained with Giemsa.
(§2) Cross resistance screening was performed with 0.3% parasitemia, 2.5% hematocrit, dispensed into 1536-well black, clear bottom plates with pre-spotted compound using a MultiFloTM Microplate dispenser (BioTek) at a volume of 8 μL/well. Plates where then incubated at 37°C for 72 h, after which 10× SYBR Green I (Invitrogen) in a lysis buffer (20 mM Tris/HCl, 5 mM EDTA, 0.16% (w/v) saponin, 1.6% (v/v) […]) was then added using a MultiFloTM Microplate dispenser (BioTek) at a volume of 2 μL/well. After 24 h incubation at room temperature, viability was measured via fluorescence using the EnVision® Multilabel Reader (PerkinElmer) (485 nm excitation, 530 nm emission). IC50 values were determined in CDD vault (https://www.collaborativedrug.com/).

[2] = tested on: attb ScDHODH; format: cell-based, P. falciparum; conditions: Asexual Blood Stage DHODH; line expressing S. cerevisiae DHODH; mean ± SEM of 3 biological replicates
Procedure: as §1, §2

CC[C@H](C)[C@H](NC(=O)[C@H](CC(C)C)NC(=O)[C@H](CCC(N)=O)NC(=O)[C@@](C)(CC)NC(C)=O)C(=O)NC(C)(C)C(=O)N1CCC[C@H]1C(=O)N[C@](C)(CC)C(=O)N[C@@H](CC(C)C)C(=O)NC(C)(C)C(=O)N1CCC[C@H]1C(=O)N[C@H](CO)CC(C)C [HZ NPDG-I, harzianin NPDG I] (Ac-[dIva]QLI[Aib]P[dIva]L[Aib]P[Leu(ol)])
EC50 [1]: 5.7 ± 2.3 nM | EC50 [2]: 9.1 ± 1.5 nM
